Assay results from ChEMBL document CHEMBL5550205, “Discovery of a NCOA4 Degrader for Labile Iron-Dependent Ferroptosis Inhibition” (J Med Chem, 2024).
Activity calls are given as the source filed them. No cut-off for these calls is given here.

Assays:
[1] = biological target: T1, von Hippel-Lindau disease tumor suppressor/Nuclear receptor coactivator 4 (Homo sapiens, UniProt P40337+Q13772); assay: PROTAC activity at NCOA4/VHL in human HeLa cells assessed as downregulation of NCOA4 level measured after 3 hrs by Western blot analysis; format: cell-based
[2] = biological target: T1, von Hippel-Lindau disease tumor suppressor/Nuclear receptor coactivator 4; assay: PROTAC activity at NCOA4/VHL in human HeLa cells assessed as induction of NCOA4 degradation at 50 nM measured 36 to 48 hrs by Western blot analysis; format: cell-based; conditions: time 36-48 hrs
[3] = biological target: von Hippel-Lindau disease tumor suppressor/Nuclear receptor coactivator 4 (Mus musculus, UniProt P40338+Q5U4H9); assay: PROTAC activity at NCOA4/VHL in mouse AML12 cells assessed as reduction in intracellular NCOA4 level incubated for 24 hrs by Western blot analysis; format: cell-based
[4] = biological target: von Hippel-Lindau disease tumor suppressor/Nuclear receptor coactivator 4 (Mus musculus) (UniProt P40338+Q5U4H9); assay: PROTAC activity at NCOA4/VHL in mouse AML12 cells assessed as effect on NCOA4 mRNA level at 0.12 to 10 uM incubated for 24 hrs by qRT-PCR analysis; format: cell-based; conditions: dose 0.12-10 µM
[5] = test system: AML12; assay: Upregulation of FTH1 level in mouse AML12 cells incubated for 24 hrs by Western blot analysis; format: functional, cell-based; conditions: dose <= 10.0 µM
[6] = test system: AML12; assay: Upregulation of FTL level in mouse AML12 cells incubated for 24 hrs by Western blot analysis; format: functional, cell-based; conditions: dose <= 10.0 µM
[7] = test system: AML12; assay: Effect on FTH1 mRNA expression in mouse AML12 cells at 0.12 to 10 uM measured for 36 hrs by RT-qPCR analysis; format: functional, cell-based; conditions: dose 0.12-10 µM
[8] = test system: AML12; assay: Effect on FTL mRNA expression in mouse AML12 cells at 0.12 to 10 uM measured for 36 hrs by RT-qPCR analysis; format: functional, cell-based; conditions: dose 0.12-10 µM
[9] = test system: AML12; assay: Downregulation of Free Fe2+ level in mouse AML12 cells by FerroOrange dye based laser scanning confocal microscopic analysis; format: functional, cell-based
[10] = test system: AML12; assay: Downregulation of MDA level in mouse AML12 cells measured for 36 hrs; format: functional, cell-based; conditions: dose <= 10.0 µM
[11] = test system: AML12; assay: Downregulation of lipid hydroperoxide level in mouse AML12 cells at 200 nM measured for 36 hrs; format: functional, cell-based
[12] = test system: AML12; assay: Protection against RSL3-induced ferroptosis in mouse AML12 cells assessed as increase in cell viability at 200 nM measured for 48 hrs by cell counting-lite 2.0 analysis; format: functional, cell-based
[13] = test system: AML12; assay: Protection against iFSP-induced ferroptosis in mouse AML12 cells assessed as increase in cell viability at 200 nM measured for 48 hrs by cell counting-lite 2.0 analysis; format: functional, cell-based
[14] = test system: AML12; assay: Protection against FINO2-induced ferroptosis in mouse AML12 cells assessed as increase in cell viability at 200 nM measured for 48 hrs by cell counting-lite 2.0 analysis; format: functional, cell-based
[15] = test system: AML12; assay: Protection against Erastin-induced ferroptosis in mouse AML12 cells assessed as attenuation of Fe2+ level by fluorescence imaging analysis; format: functional, cell-based
[16] = test system: AML12; assay: Protection against Brequinal-induced ferroptosis in mouse AML12 cells assessed as attenuation of Fe2+ level by fluorescence imaging analysis; format: functional, cell-based
[17] = test system: AML12; assay: Protection against Erastin-induced ferroptosis in mouse AML12 cells assessed as reduction in lipid peroxidation level at 200 nM measured for 48 hrs; format: functional, cell-based
[18] = test system: AML12; assay: Protection against RSL3-induced ferroptosis in mouse AML12 cells assessed as reduction in lipid peroxidation level at 200 nM measured for 48 hrs; format: functional, cell-based
[19] = test system: AML12; assay: Protection against Brequinal-induced ferroptosis in mouse AML12 cells assessed as reduction in lipid peroxidation level at 200 nM measured for 48 hrs; format: functional, cell-based
[20] = test system: AML12; assay: Protection against FINO2-induced ferroptosis in mouse AML12 cells assessed as reduction in lipid peroxidation level at 200 nM measured for 48 hrs; format: functional, cell-based
[21] = test system: AML12; assay: Protection against CCl4-induced ferroptosis in mouse AML12 cells assessed as reduction in lipid peroxidation level at 200 to 1000 nM; format: functional, cell-based; conditions: dose 200-1000 nM
[22] = test system: AML12; assay: Protection against CCl4-induced ferroptosis in mouse AML12 cells assessed as reduction in ptgs2 mRNA level at 200 to 1000 nM measured for 36 hrs by qRT-PCR analysis; format: functional, cell-based; conditions: dose 200-1000 nM
[23] = test system: AML12; assay: Protection against CCl4-induced ferroptosis in mouse AML12 cells assessed as cell viability in presence of Ferrostatin-1; format: functional, cell-based
[24] = test system: AML12; assay: Protection against CCl4-induced ferroptosis in mouse AML12 cells assessed as cell viability in presence of Deferoxamine; format: functional, cell-based
[25] = test system: Mus musculus; assay: Inhibition of CCl4-induced ferroptosis in acute liver injury C57BL/6 mouse model assessed as downregulation of NCOA4 level at 10 to 30 mg/kg, ip pretreated with compound for 3 hrs followed by CCl4 induction and measured after 12 to 24 hrs by Western blot analysis; format: functional, organism-based; conditions: dose 10-30 mg/kg, time 15-27 hrs
[26] = test system: Mus musculus; assay: Inhibition of CCl4-induced ferroptosis in acute liver injury C57BL/6 mouse model assessed as downregulation of FTH1 level at 10 to 30 mg/kg, ip pretreated with compound for 3 hrs followed by CCl4 induction and measured after 12 to 24 hrs by Western blot analysis; format: functional, organism-based; conditions: dose 10-30 mg/kg, time 15-27 hrs
[27] = test system: Mus musculus; assay: Inhibition of CCl4-induced ferroptosis in acute liver injury C57BL/6 mouse model assessed as reduction in MDA content in liver at 10 to 30 mg/kg, ip pretreated with compound for 3 hrs followed by CCl4 induction and measured after 12 to 24 hrs; format: functional, organism-based; conditions: dose 10-30 mg/kg, time 15-27 hrs
[28] = test system: Mus musculus; assay: Inhibition of CCl4-induced ferroptosis in acute liver injury C57BL/6 mouse model assessed as reduction in ptgs2 mRNA level in liver at 10 to 30 mg/kg, ip pretreated with compound for 3 hrs followed by CCl4 induction and measured after 12 to 24 hrs; format: functional, organism-based; conditions: dose 10-30 mg/kg, time 15-27 hrs
[29] = test system: Mus musculus; assay: Inhibition of CCl4-induced ferroptosis in acute liver injury C57BL/6 mouse model assessed as inhibition of ALT level at 10 to 30 mg/kg, ip pretreated with compound for 3 hrs followed by CCl4 induction and measured after 12 to 24 hrs; format: functional, organism-based; conditions: dose 10-30 mg/kg, time 15-27 hrs
[30] = test system: Mus musculus; assay: Inhibition of CCl4-induced ferroptosis in acute liver injury C57BL/6 mouse model assessed as reduction in IL-6 level in serum at 10 to 30 mg/kg, ip pretreated with compound for 3 hrs followed by CCl4 induction and measured after 12 to 24 hrs by ELISA analysis; format: functional, organism-based; conditions: dose 10-30 mg/kg, time 15-27 hrs
[31] = test system: Mus musculus; assay: Inhibition of CCl4-induced ferroptosis in acute liver injury C57BL/6 mouse model assessed as reduction in IL-1beta level in serum at 10 to 30 mg/kg, ip pretreated with compound for 3 hrs followed by CCl4 induction and measured after 12 to 24 hrs by ELISA analysis; format: functional, organism-based; conditions: dose 10-30 mg/kg, time 15-27 hrs
[32] = test system: Mus musculus; assay: Inhibition of CCl4-induced ferroptosis in acute liver injury C57BL/6 mouse model assessed as decrease in IL-1beta expression in liver at 10 to 30 mg/kg, ip pretreated with compound for 3 hrs followed by CCl4 induction and measured after 12 to 24 hrs by q-PCR analysis; format: functional, organism-based; conditions: dose 10-30 mg/kg, time 15-27 hrs
[33] = test system: Mus musculus; assay: Inhibition of CCl4-induced ferroptosis in acute liver injury C57BL/6 mouse model assessed as decrease in TNF-alpha expression in liver at 10 to 30 mg/kg, ip pretreated with compound for 3 hrs followed by CCl4 induction and measured after 12 to 24 hrs by q-PCR analysis; format: functional, organism-based; conditions: dose 10-30 mg/kg, time 15-27 hrs

T1 sequence (P40337 whole entry, looked up): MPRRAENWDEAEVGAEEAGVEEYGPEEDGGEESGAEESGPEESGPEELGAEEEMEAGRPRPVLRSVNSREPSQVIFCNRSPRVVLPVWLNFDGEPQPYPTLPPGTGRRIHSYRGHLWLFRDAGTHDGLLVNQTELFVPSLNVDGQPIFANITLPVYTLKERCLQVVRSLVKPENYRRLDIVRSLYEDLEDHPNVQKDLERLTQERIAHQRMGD
T1 sequence (Q13772 whole entry, looked up): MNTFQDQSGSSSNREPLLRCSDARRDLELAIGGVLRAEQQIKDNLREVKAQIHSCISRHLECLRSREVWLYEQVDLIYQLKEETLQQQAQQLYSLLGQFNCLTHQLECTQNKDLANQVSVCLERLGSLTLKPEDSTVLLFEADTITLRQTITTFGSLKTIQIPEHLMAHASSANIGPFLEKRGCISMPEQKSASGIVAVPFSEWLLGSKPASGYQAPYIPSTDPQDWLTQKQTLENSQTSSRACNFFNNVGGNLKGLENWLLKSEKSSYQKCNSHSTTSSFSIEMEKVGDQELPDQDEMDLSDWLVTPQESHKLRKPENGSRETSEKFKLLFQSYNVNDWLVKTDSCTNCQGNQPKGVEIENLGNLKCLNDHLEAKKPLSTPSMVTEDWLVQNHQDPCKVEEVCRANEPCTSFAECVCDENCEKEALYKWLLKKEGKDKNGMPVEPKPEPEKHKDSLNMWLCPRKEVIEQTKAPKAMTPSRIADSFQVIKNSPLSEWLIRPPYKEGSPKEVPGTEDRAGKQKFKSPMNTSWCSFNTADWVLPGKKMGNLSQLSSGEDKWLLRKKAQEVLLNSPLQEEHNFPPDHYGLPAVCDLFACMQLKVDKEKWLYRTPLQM
von Hippel-Lindau disease tumor suppressor/Nuclear receptor coactivator 4 (Mus musculus), sequence (P40338 whole entry, looked up): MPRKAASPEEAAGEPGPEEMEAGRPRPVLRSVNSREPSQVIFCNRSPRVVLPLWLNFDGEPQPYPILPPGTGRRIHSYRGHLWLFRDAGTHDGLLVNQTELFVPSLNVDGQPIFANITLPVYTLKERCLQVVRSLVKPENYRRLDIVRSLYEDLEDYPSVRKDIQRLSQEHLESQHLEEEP
von Hippel-Lindau disease tumor suppressor/Nuclear receptor coactivator 4 (Mus musculus), sequence (Q5U4H9 whole entry, looked up): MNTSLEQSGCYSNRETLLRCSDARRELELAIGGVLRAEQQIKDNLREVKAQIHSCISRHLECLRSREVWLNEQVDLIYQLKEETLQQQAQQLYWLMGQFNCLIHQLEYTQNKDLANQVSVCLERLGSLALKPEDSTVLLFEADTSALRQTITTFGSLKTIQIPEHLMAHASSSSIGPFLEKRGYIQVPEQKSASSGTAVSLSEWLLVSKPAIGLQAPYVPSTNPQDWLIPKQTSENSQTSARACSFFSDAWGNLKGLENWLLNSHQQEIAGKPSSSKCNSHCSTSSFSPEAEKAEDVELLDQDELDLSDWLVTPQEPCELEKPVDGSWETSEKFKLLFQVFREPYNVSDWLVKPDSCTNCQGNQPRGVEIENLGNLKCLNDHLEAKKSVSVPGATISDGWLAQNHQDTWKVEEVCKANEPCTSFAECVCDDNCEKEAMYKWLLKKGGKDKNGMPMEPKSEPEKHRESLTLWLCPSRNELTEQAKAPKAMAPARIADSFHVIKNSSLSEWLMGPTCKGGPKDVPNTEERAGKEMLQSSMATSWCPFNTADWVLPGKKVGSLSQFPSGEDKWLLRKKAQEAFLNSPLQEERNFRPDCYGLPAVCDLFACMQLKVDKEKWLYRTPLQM
von Hippel-Lindau disease tumor suppressor/Nuclear receptor coactivator 4 (Mus musculus, UniProt P40338+Q5U4H9), sequence (P40338 whole entry): as the sequence (P40338 whole entry, looked up) above
von Hippel-Lindau disease tumor suppressor/Nuclear receptor coactivator 4 (Mus musculus, UniProt P40338+Q5U4H9), sequence (Q5U4H9 whole entry): as the sequence (Q5U4H9 whole entry, looked up) above

Compound: Cc1ncsc1-c1ccc(CNC(=O)[C@@H]2C[C@@H](O)CN2C(=O)[C@H](NC(=O)CCCC(=O)NCCOCCOCCOCCOc2ccc3c(c2)CCN(c2cccc(-c4nc5ccc(N6CCN(C)CC6)cc5[nH]4)c2)C3)C(C)(C)C)cc1
- Activity [1]: Active
- Activity [2]: Active
- DC50 [3]: 202 nM
- Activity [4]: Active
- Activity [5]: Dose-Dependent Effect
- Activity [6]: Dose-Dependent Effect
- Activity [7]: inactive
- Activity [8]: inactive
- Activity [9]: Active
- Activity [10]: Dose-Dependent Effect
- Activity [11]: Active
- Activity [12]: Active
- Activity [13]: Active
- Activity [14]: Active
- Activity [15]: Active
- Activity [16]: Active
- Activity [17]: Active
- Activity [18]: Active
- Activity [19]: Active
- Activity [20]: Active
- Activity [21]: Active
- Activity [22]: Active
- EC50 [23]: 9 nM
- EC50 [24]: 410 nM
- inhibition [25]: Active
- inhibition [26]: Active
- inhibition [27]: Active
- inhibition [28]: Active
- inhibition [29]: Active
- inhibition [30]: Active
- inhibition [31]: Active
- inhibition [32]: Active
- inhibition [33]: Active
